# From US6762174B1 (priority 1998, dated 2004)
# Read-outs that look alike come from different tables or passages of the source.
# What was measured:
# [1] = DEX.10 mg IP
# [2] = tested on: MT-1 breast cancer xenograft; conditions: for Died of toxic effects: 8 mice
# B16 melanoma = format: in vivo, female BDF1 mice; conditions: for Statistically Significant Effect on Reducing Tumor Volume: cp alone
# MOPC-315 myeloma [3] = experiment: MOPC-315 Myeloma study #5: Melphalan + β-alethine ip day 9 (1 × 10^6 tumor cells); conditions: for Tumor Size: 1.25 mg/kg mp; for Animals Surviving: mp 1.25 mg/kg
# MOPC-315 myeloma [4] = experiment: MOPC-315 Myeloma study #6: β-alethine ip day 9, 10 or 11, mp ip day 10 (1 × 10^6 tumor cells); conditions: for Animals Surviving: mp 1.25 mg/kg d 10 alone (20 mice)
# MOPC-315 myeloma [5] = experiment: MOPC-315 Myeloma study #4: Melphalan + β-alethine ip day 10 (1 × 10^6 tumor cells); conditions: for Animals Surviving: mp 1.25 mg/kg; for Mean Tumor Size: mp alone
# [6] = mp on day 10, BT none, 20 in group
smiles,measurement,setting,value
"C[C@@H]1C[C@H]2[C@@H]3CCC4=CC(=O)C=C[C@]4(C)[C@@]3(F)[C@@H](O)C[C@]2(C)[C@@]1(O)C(=O)CO [DEX., dexamethasone]",Percent Body Weight Loss From Day 0,[1]; day 1,3.0%
same,Percent Body Weight Loss From Day 0,[1]; day 5,4.6%
same,Percent Body Weight Loss From Day 0,[1]; day 6,2.8%
same,Percent Body Weight Loss From Day 0,[1]; day 7,3.4%
same,Percent Body Weight Loss From Day 0,[1]; day 8,2.4%
same,Percent Body Weight Loss From Day 0,[1]; day 9,3.6%
same,Percent Body Weight Loss From Day 0,[1]; day 10,2.8%
same,Percent Body Weight Loss From Day 0,[1]; day 11,1.3%
same,Percent Body Weight Loss From Day 0,[1]; day 12,3.7%
same,Percent Body Weight Loss From Day 0,[1]; day 13,2.1%
same,Percent Body Weight Loss From Day 0,[1]; day 21,0.1%
"O=P1(N(CCCl)CCCl)NCCCO1 (stereo not shown) [cp, cyclophosphamide]",Median Relative Tumor Volume,"[2]; 100 mg/kg cp, day 42",1
same,Median Relative Tumor Volume,"[2]; 100 mg/kg cp, day 46",1.37
same,Median Relative Tumor Volume,"[2]; 100 mg/kg cp, day 49",1.54
same,Median Relative Tumor Volume,"[2]; 100 mg/kg cp, day 53",1.50
same,Median Relative Tumor Volume,"[2]; 100 mg/kg cp, day 59",1.85
same,Median Relative Tumor Volume,"[2]; 200 mg/kg cp, day 42",1
same,Median Relative Tumor Volume,"[2]; 200 mg/kg cp, day 46",1.15
same,Median Relative Tumor Volume,"[2]; 200 mg/kg cp, day 49",1.11
same,Median Relative Tumor Volume,"[2]; 200 mg/kg cp, day 53",1.21
same,Median Relative Tumor Volume,"[2]; 200 mg/kg cp, day 59",1.15
same,Median Relative Tumor Volume,"[2]; 300 mg/kg cp, day 42",1
same,Median Relative Tumor Volume,"[2]; 300 mg/kg cp, day 46",1.34
same,Median Relative Tumor Volume,"[2]; 300 mg/kg cp, day 49",1.14
same,Median Relative Tumor Volume,"[2]; 300 mg/kg cp, day 53",1.15
same,Median Relative Tumor Volume,"[2]; 300 mg/kg cp, day 59",1.14
same,T/C RTV d 49,[2]; Cp 100 mg/kg,87%
same,T/C RTV d 59,[2]; Cp 100 mg/kg,81%
same,WBC d 46,[2]; Cp 100 mg/kg,10.3 10^6/mL
same,T/C RTV d 49,[2]; Cp 200 mg/kg,63%
same,T/C RTV d 59,[2]; Cp 200 mg/kg,50%
same,WBC d 46,[2]; Cp 200 mg/kg,5.5 10^6/mL
same,Last 2 readings indicate progression,[2]; Cp 300 mg/kg,12%
same,Last 2 readings indicate regression,[2]; Cp 300 mg/kg,12%
same,Last 2 readings stayed the same,[2]; Cp 300 mg/kg,0%
same,Last reading indicates progression,[2]; Cp 300 mg/kg,25%
same,Last reading indicates regression,[2]; Cp 300 mg/kg,25%
same,T/C RTV d 49,[2]; Cp 300 mg/kg,65%
same,T/C RTV d 59,[2]; Cp 300 mg/kg,50%
same,WBC d 46,[2]; Cp 300 mg/kg,5.6 10^6/mL
same,Died of toxic effects,[2]; Cp 300 mg/kg,25%
same,Died of toxic effects,"[2]; Cp 300 mg/kg, listed as Cp",25%
same,Percent of Animals with Greater than 10 Metastases,B16 melanoma; Cp 200 mg/kg,50%
same,animals with 0-10 Metastases on Day 42,B16 melanoma; Cp 200 mg/kg,4
same,animals with 11-20 Metastases on Day 42,B16 melanoma; Cp 200 mg/kg,3
same,animals with 21-30 Metastases on Day 42,B16 melanoma; Cp 200 mg/kg,0
same,animals with over 30 Metastases (full of metastases) on Day 42,B16 melanoma; Cp 200 mg/kg,1
same,Primary Tumor Size (Median RTV),"B16 melanoma; cp 200 mg/kg alone, day 0",1
same,Primary Tumor Size (Median RTV),"B16 melanoma; cp 200 mg/kg alone, day 4",1.0
same,Primary Tumor Size (Median RTV),"B16 melanoma; cp 200 mg/kg alone, day 7",2.4
same,Primary Tumor Size (Median RTV),"B16 melanoma; cp 200 mg/kg alone, day 10",3.5
same,Primary Tumor Size (Median RTV),"B16 melanoma; cp 200 mg/kg alone, day 14",12.9
same,Primary Tumor Size (Median RTV),"B16 melanoma; cp 200 mg/kg alone, day 17",32.6
same,T/C ratio for medium tumor volume,"B16 melanoma; cp 200 mg/kg alone, day 17",82.3%
same,Statistically Significant Effect on Reducing Tumor Volume,B16 melanoma; DAY 7,No
same,Statistically Significant Effect on Reducing Tumor Volume,B16 melanoma; DAY 10,Yes
same,Statistically Significant Effect on Reducing Tumor Volume,B16 melanoma; DAY 14,Yes
same,Statistically Significant Effect on Reducing Tumor Volume,B16 melanoma; DAY 17,No
"N[C@@H](Cc1ccc(N(CCCl)CCCl)cc1)C(=O)O [mp, melphalan]",Tumor Size,MOPC-315 myeloma [3]; day 13,20.4 mm
same,Tumor Size,MOPC-315 myeloma [3]; day 16,19.2 mm
same,Tumor Size,MOPC-315 myeloma [3]; day 20,17.0 mm
same,Tumor Size,MOPC-315 myeloma [3]; day 23,10.2 mm
same,Tumor Size,MOPC-315 myeloma [3]; day 27,0 mm
same,Animals Surviving,MOPC-315 myeloma [3]; day 10,10
same,Animals Surviving,MOPC-315 myeloma [3]; day 11,10
same,Animals Surviving,MOPC-315 myeloma [3]; day 12,10
same,Animals Surviving,MOPC-315 myeloma [3]; day 13,10
same,Animals Surviving,MOPC-315 myeloma [3]; day 14,10
same,Animals Surviving,MOPC-315 myeloma [3]; day 15,10
same,Animals Surviving,MOPC-315 myeloma [3]; day 16,10
same,Animals Surviving,MOPC-315 myeloma [3]; day 17,10
same,Animals Surviving,MOPC-315 myeloma [3]; day 18,10
same,Animals Surviving,MOPC-315 myeloma [3]; day 19,10
same,Animals Surviving,MOPC-315 myeloma [3]; day 20,9
same,Animals Surviving,MOPC-315 myeloma [3]; day 21,9
same,Animals Surviving,MOPC-315 myeloma [3]; day 22,9
same,Animals Surviving,MOPC-315 myeloma [3]; day 23,8
same,Animals Surviving,MOPC-315 myeloma [3]; day 25,8
same,Animals Surviving,MOPC-315 myeloma [3]; day 26,8
same,Animals Surviving,MOPC-315 myeloma [3]; day 28,7
same,Animals Surviving,MOPC-315 myeloma [3]; day 29,7
same,Animals Surviving,MOPC-315 myeloma [3]; day 31,7
same,Animals Surviving,MOPC-315 myeloma [4]; test day 10,20
same,Animals Surviving,MOPC-315 myeloma [4]; test day 11,20
same,Animals Surviving,MOPC-315 myeloma [4]; test day 12,20
same,Animals Surviving,MOPC-315 myeloma [4]; test day 13,20
same,Animals Surviving,MOPC-315 myeloma [4]; test day 14,20
same,Animals Surviving,MOPC-315 myeloma [4]; test day 15,20
same,Animals Surviving,MOPC-315 myeloma [4]; test day 16,19
same,Animals Surviving,MOPC-315 myeloma [4]; test day 17,19
same,Animals Surviving,MOPC-315 myeloma [4]; test day 18,19
same,Animals Surviving,MOPC-315 myeloma [4]; test day 19,19
same,Animals Surviving,MOPC-315 myeloma [4]; test day 20,19
same,Animals Surviving,MOPC-315 myeloma [4]; test day 21,15
same,Animals Surviving,MOPC-315 myeloma [4]; test day 22,9
same,Animals Surviving,MOPC-315 myeloma [4]; test day 23,9
same,Animals Surviving,MOPC-315 myeloma [4]; test day 25,7
same,Animals Surviving,MOPC-315 myeloma [4]; test day 26,4
same,Animals Surviving,MOPC-315 myeloma [4]; test day 27,3
same,Animals Surviving,MOPC-315 myeloma [4]; test day 29,2
same,Animals Surviving,MOPC-315 myeloma [4]; test day 31,2
same,day 21 tumor size,"MOPC-315 myeloma [4]; mp on day 10, BT none",25.8 mm
same,day half are dead,"MOPC-315 myeloma [4]; mp on day 10, BT none",22
same,cures day 21,MOPC-315 myeloma [4]; [6],2
same,deaths day 21,MOPC-315 myeloma [4]; [6],5
same,cures day 21,"MOPC-315 myeloma [4]; mp on day 10, BT none, 20 in group, listed as melphalan",2/20
same,day 21 tumor size,"MOPC-315 myeloma [4]; mp on day 10, BT none, listed as melphalan",26 mm
same,animals in ten cured,MOPC-315 myeloma [5]; mp 1.25 mg/kg alone,one
same,"cure occurred, days after treatment began",MOPC-315 myeloma [5]; mp 1.25 mg/kg alone,19 days
same,Animals Surviving,MOPC-315 myeloma [5]; day 10,10
same,Animals Surviving,MOPC-315 myeloma [5]; day 11,8
same,Animals Surviving,MOPC-315 myeloma [5]; day 12,5
same,Animals Surviving,MOPC-315 myeloma [5]; day 13,4
same,Animals Surviving,MOPC-315 myeloma [5]; day 14,3
same,Animals Surviving,MOPC-315 myeloma [5]; day 15,3
same,Animals Surviving,MOPC-315 myeloma [5]; day 16,3
same,Animals Surviving,MOPC-315 myeloma [5]; day 17,3
same,Animals Surviving,MOPC-315 myeloma [5]; day 18,3
same,Animals Surviving,MOPC-315 myeloma [5]; day 19,3
same,Animals Surviving,MOPC-315 myeloma [5]; day 20,3
same,Animals Surviving,MOPC-315 myeloma [5]; day 21,3
same,Animals Surviving,MOPC-315 myeloma [5]; day 22,3
same,Animals Surviving,MOPC-315 myeloma [5]; day 23,3
same,Animals Surviving,MOPC-315 myeloma [5]; day 25,3
same,Animals Surviving,MOPC-315 myeloma [5]; day 26,3
same,Animals Surviving,MOPC-315 myeloma [5]; day 27,3
same,Animals Surviving,MOPC-315 myeloma [5]; day 29,3
same,Animals Surviving,MOPC-315 myeloma [5]; day 31,1
same,Mean Tumor Size,MOPC-315 myeloma [5]; day 10,22.5 mm
same,Mean Tumor Size,MOPC-315 myeloma [5]; day 14,19 mm
same,Mean Tumor Size,MOPC-315 myeloma [5]; day 17,17 mm
same,Mean Tumor Size,MOPC-315 myeloma [5]; day 21,22 mm
same,Mean Tumor Size,MOPC-315 myeloma [5]; day 29,28 mm
